Experimental findings from patent publication US20080220078A1, “Pharmaceutical Formulations” (Vectura Limited, priority 2004, published 2008) are described below.

What all share (type): physicochemical
Series [1] can be described thus: Density Measurements (poured and tapped density). As for the experimental part: Approximately 5 g of material was placed in a measuring cylinder and the volume noted. The poured density was calculated. The measuring cylinder was tapped 100 times and the volume noted. Tapping was repeated to constant volume and the tapped density calculated. The equipment used was a […] Volumeter STA […].

Series [2] is described as follows: Zeta potential (Zetasizer 3000HS, in cyclohexane). The settings on record: average of 10 measurements. The method, then:
In addition, the powders were studied using the Zetasizer 3000HS instrument (Malvern Instruments Ltd, UK.) Each sample was tested in cyclohexane, and zeta potential measurements were obtained. Zetasizer measures the zeta potential. This is a measure of the electric potential on a particle in suspension in the hydrodynamic plane of shear. The results are summarized as follows: Each result is an average of 10 measurements.

The nature of series [3]: XPS surface analysis of powders. The text has this: The aim of the analysis is to identify the presence of magnesium stearate on the surface of a model of a co-micronised active agent. […] The aim was to show the contrast in surface coating efficiency. The model material, representing the micronised active agent particles, was micronised lactose.
The powders have been analyzed using both TOF-SIMS and XPS. TOF-SIMS provides a mass spectrum of the outermost 1 nm of the surface, and is used here to asses whether the magnesium stearate coverage of the lactose is complete or in patches. XPS provides a spectrum representative of the outermost 10 nm of the surface of the sample and is used here in comparison to the TOF-SIMS data to assess the depth of coverage of the magnesium stearate on the lactose surface.
XPS is a surface analytical technique that can quantify the amount of different chemical species in the outermost 10 nm of a surface. In the simplest form of analysis, XPS measures the relative amount of each element present. Quantitative elemental identification can be achieved down to 1 atom in 1000. AU elements present can be detected with the exception of hydrogen. Elemental analysis may be essential in determining the amount of a surface contaminant or to quantify any surface species with a unique elemental type.

Where [4] appears, read: single measurements (Measurement 1, Measurement 2).

“And” between values parts separate entries of the source, which are not always exact repeats. Equal values may be shown once.

Consider Salbutamol sulphate, for which the “Number of Taps to Constant Volume” value in series [1] (Stampf Volumeter STA V2003) is on record as 200. Besides, in series [1] (approximately 5 g powder in measuring cylinder), the “Poured Density” value amounted to 0.19 g/ml. In series [1] (tapped to constant volume), the “Tapped Density” value was determined as 0.24 g/mL.

Turning to `OC[C@H]1O[C@@H](O[C@H]2[C@H](O)[C@@H](O)C(O)O[C@@H]2CO)[C@H](O)[C@@H](O)[C@H]1O` (some centres unmarked) [Lactose], the “Zeta Potential” value in series [2] was 35.5 mV. Further, in series [3] (Mean), the “Area % of C 1s Spectral Envelope, C—C” value came to 5.5%; the “Area % of C 1s Spectral Envelope, C—O” value is 64.3%; the “Area % of C 1s Spectral Envelope, O—C—O” value worked out at 20.0%; the “Area % of C 1s Spectral Envelope, O—C═O” value is reported as 8.7%. Also, in series [3] (Mean), the “Relative Atomic Percentage Composition, C” value is listed as 54.9%; the “Relative Atomic Percentage Composition, Mg” value is recorded as under 0.1%; the “Relative Atomic Percentage Composition, O” value came out at 45.1%. In series [3] (setting [4]), the “Area % of C 1s Spectral Envelope, C—C” value was 6.4% and 4.4%; the “Area % of C 1s Spectral Envelope, C—O” value is 70.9% and 57.8%; the “Area % of C 1s Spectral Envelope, O—C—O” value was 18.0% and 22.0%; the “Area % of C 1s Spectral Envelope, O—C═O” value was 4.7% and 12.8%. Moreover, in series [3] (setting [4]), the “Relative Atomic Percentage Composition, C” value is 54.47% and 55.29%; the “Relative Atomic Percentage Composition, O” value is 45.43% and 44.71%.
